Assay results from patent publication US4503068A, “Use of prostaglandin analogues to treat cytodamage” (priority 1982, dated 1985).
Where two headings read alike, the source gives them in different places.

Tests used:
[1] = tested on: carbon tetrachloride (CCl4) induced liver damage; test: Effect on carbon tetrachloride (CCl4) induced liver damage (liver cell necrosis type); type: in vivo, Male Wistar rats; conditions: Rattus norvegicus; for inhibition in vivo at 0.05 mg/kg: 50 μg/kg 6 and 12 hr after CCl4; for inhibition in vivo at 0.1 mg/kg: 100 μg/kg 6 and 12 hr after CCl4; for inhibition in vivo at 1 mg/kg: 1000 μg/kg 6 and 12 hr after CCl4; for inhibition in vivo at 0.5 mg/kg: 500 μg/kg 6 and 12 hr after CCl4; for inhibition in vivo at 2 mg/kg: 2000 μg/kg 6 and 12 hr after CCl4; for inhibition in vivo at 0.02 mg/kg: 20 μg/kg 6 and 12 hr after CCl4
Experimental: Effect on carbon tetrachloride (CCl4) induced liver damage (liver cell necrosis type)
Male Wistar rats weighing 180-220 g were used. Rats were dosed intraperitoneally with CCl4 dissolved in olive oil (5% w/v) at a volume of 500 μl/kg after 18 hr starvation. The compound under test was administered orally (p.o.) or subcutaneously (s.c.) 6 and 12 hr after CCl4 injection in rats and blood was collected after 24 hr. Plasma glutamic oxaloacetic transaminase (GOT) and glutamic pyruvic transaminase (GPT) activities were determined by ultraviolet absorbance methods (optimised method based on the recommendations of the Deutsche Gesellschaft f/u/ r Klinische Chemie). The effects of the compounds tested were assessed by the inhibition rate in comparison with controls. Inhibition rate was calculated by the following formula. [formula]
(§1) In Tables 1 to 4 hereinafter the dose shown is the amount given at each administration of the compound under test.

in vivo = conditions: mouse, mice, oral, observed for 14 days
Experimental: Male JCL-ICR mice (non SPF mice) from 7 weeks of age were used. The compound under test was dissolved in 5% v/v ethanol containing 0.4% w/v Tween 80 (Tween is a registered trademark) and administered orally to the mice.

[2] = tested on: α-naphthylisothiocyanate-induced liver damage; test: Effect on α-naphthylisothiocyanate-induced liver damage (cholangioatresia type); type: in vivo, Male Wistar rats; conditions: p.o., blood after 24 hr
Experimental: as §1
Effect on α-naphthylisothiocyanate-induced liver damage (cholangioatresia type)
Male Wistar rats weighing 190-220 g were used. After rats had fasted for 18 hr, α-naphthylisothiocyanate (ANIT) dissolved in olive oil (1.5% w/v) was given orally to them at 30 mg/kg body weight. The compound under test was administered orally 30 min before and 6 and 12 hr after administration of ANIT and blood was collected after 24 hr. Plasma GOT, GPT and bilirubin activities were determined and the results given in Table 3 show the inhibition rate compared with controls (calculation by the formula shown in Experiment 1).

endotoxin shock = conditions: dog; cited from earlier work
[3] = tested on: isolate perfused cat liver; conditions: cited from earlier work
[4] = tested on: endotoxin-induced lung injury; conditions: sheep; cited from earlier work
[5] = tested on: ischemic myocardial tissue; conditions: cat; cited from earlier work
[6] = tested on: acute galactosamine-induced liver damage; conditions: in vivo; cited from earlier work
[7] = tested on: carbon tetrachloride-induced liver cell necrosis; conditions: in vivo; cited from earlier work
[8] = tested on: D(+)-galactosamine hydrochloride-induced liver damage; test: Effect on D(+)-galactosamine hydrochloride-induced liver damage (hepatitis type); type: in vivo, Male Wistar rats; conditions: p.o.
Experimental: as §1
Effect on D(+)-galactosamine hydrochloride-induced liver damage (hepatitis type)
Male Wistar rats weighing 180-200 g were used. After the rats had fasted for 18 hr, 375 mg/kg galactosamine hydrochloride was administered to them intraperitoneally two times at 6 hr intervals. The compound under test was administered orally, 30 minutes before and, 6, 12 and 24 hr after the dose of D(+)-galactosamine hydrochloride and blood was collected after 24 and 48 hr. Plasma GOT and GPT activities were determined in the manner described in Experiment 1; plasma bilirubin activities were also determined. The effects were shown by the inhibition rate compared with controls (calculation by the formula shown in Experiment 1).

[9] = tested on: diet-induced acute pancreatitis; conditions: mice; cited from earlier work
[10] = po, plasma GOT after 24 hr, read-out: inhibition rate, GOT
[11] = po, plasma GPT after 24 hr, read-out: inhibition rate, GPT
[12] = sc, plasma GOT after 24 hr, read-out: inhibition rate, GOT
[13] = sc, plasma GPT after 24 hr, read-out: inhibition rate, GPT

CCCC[C@H](C)C[C@H](O)/C=C/[C@H]1[C@H](O)CC(=O)[C@@H]1CC(=O)CCCCCO [Compound 5, 17S,20-dimethyl-6-oxo-PGE1 alcohol]
inhibition in vivo at 0.05 mg/kg [1, 10]: 56.6% | inhibition in vivo at 0.05 mg/kg [1, 11]: 59.1% | LD50 at 336 h (in vivo): > 10 mg/kg | inhibition, GOT ([2]; 100 μg/kg per administration): 54.1% | inhibition, GPT ([2]; 100 μg/kg per administration): 53.1% | inhibition, bilirubin ([2]; 100 μg/kg per administration): 41.7%

CCCCC[C@H](O)/C=C/[C@@H]1[C@H]2C/C(=C/CCCC(=O)O)O[C@H]2C[C@H]1O [PGI2, (5Z,13E)-(9α,11α,15S)-6,9-epoxy-11,15-dihydroxyprosta-5,13-dienoic acid]
effect on endotoxin shock (endotoxin shock): prevents and is useful in treating | effect on hypoxia in the isolate perfused cat liver [3]: prevents and is useful in treating | effect on endotoxin-induced lung injury [4]: prevents and is useful in treating | effect on ischemic myocardial tissue [5]: prevents and is useful in treating

CCCCC[C@](C)(O)/C=C/[C@H]1[C@H](O)CC(=O)[C@@H]1CC(=O)CCCCC(=O)O [Compound 3, 15S-methyl-6-oxo-PGE1]
inhibition in vivo at 0.1 mg/kg [1, 10]: 6.8% | inhibition in vivo at 0.1 mg/kg [1, 11]: 13.2%

CCCCC(C)(C)[C@H](O)/C=C/[C@H]1[C@H](O)CC(=O)[C@@H]1C/C=C\CCCC(=O)O [16,16-dimethyl-PGE2]
prevention of acute galactosamine-induced liver damage [6]: prevents | prevention of carbon tetrachloride-induced liver cell necrosis [7]: prevents

CCCC[C@H](C)C[C@H](O)/C=C/[C@@H]1[C@H]2CC(CC/C=C/C(=O)OC)O[C@H]2C[C@H]1O (stereo partly drawn) [Compound 7, 17S,20-dimethyl-trans-Δ^2-6RS-PGI1 methyl ester]
inhibition in vivo at 1 mg/kg [1, 10]: 58% | inhibition in vivo at 1 mg/kg [1, 11]: 42.7%

CCCC[C@H](C)C[C@H](O)/C=C/[C@@H]1[C@H]2C[C@H](CCCCC(=O)CO)O[C@H]2C[C@H]1O [Compound 9, 2-decarboxy-2-glycoloyl-17S,20-dimethyl-6S-PGI1]
inhibition in vivo at 0.5 mg/kg [1, 12]: 58.4% | inhibition in vivo at 0.5 mg/kg [1, 13]: 51.4% | LD50 at 336 h (in vivo): > 50 mg/kg

CCCC[C@H](C)C[C@H](O)/C=C/[C@@H]1[C@H]2C[C@H](CCCCC(=O)OC)O[C@H]2C[C@H]1O [Compound 6, 17S,20-dimethyl-6S-PGI1 methyl ester]
inhibition in vivo at 0.5 mg/kg [1, 12]: 55.3% | inhibition in vivo at 0.5 mg/kg [1, 13]: 64.6% | LD50 at 336 h (in vivo): > 50 mg/kg | inhibition rate, GOT 24 hr after ([8]; 2000 μg/kg per administration): 50.2% | inhibition rate, GPT 24 hr after ([8]; 2000 μg/kg per administration): 37.8% | inhibition rate, bilirubin 24 hr after ([8]; 2000 μg/kg per administration): 31.8% | inhibition rate, GOT 48 hr after ([8]; 2000 μg/kg per administration): 25.5% | inhibition rate, GPT 48 hr after ([8]; 2000 μg/kg per administration): 21.4% | inhibition rate, bilirubin 48 hr after ([8]; 2000 μg/kg per administration): 19.2% | inhibition, GOT ([2]; 2000 μg/kg per administration): 40.9% | inhibition, GPT ([2]; 2000 μg/kg per administration): 44.6% | inhibition, bilirubin ([2]; 2000 μg/kg per administration): 33.3%

CCCC[C@H](C)C[C@H](O)/C=C/[C@@H]1[C@H]2CC(CCCCC(=O)OC)=N[C@H]2C[C@H]1O [Compound 8, 17S,20-dimethyl-6,9α-nitrilo-PGI1 methyl ester]
inhibition in vivo at 1 mg/kg [1, 10]: 41.1% | inhibition in vivo at 1 mg/kg [1, 11]: 14.5% | inhibition in vivo at 0.5 mg/kg [1, 12]: 65.6% | inhibition in vivo at 0.5 mg/kg [1, 13]: 58.6% | LD50 at 336 h (in vivo): 40 to 100 mg/kg | inhibition rate, GOT 24 hr after ([8]; 1000 μg/kg per administration): 40.2% | inhibition rate, GPT 24 hr after ([8]; 1000 μg/kg per administration): 32.6% | inhibition rate, bilirubin 24 hr after ([8]; 1000 μg/kg per administration): 12.1% | inhibition rate, GOT 48 hr after ([8]; 1000 μg/kg per administration): 57.2% | inhibition rate, GPT 48 hr after ([8]; 1000 μg/kg per administration): 47.6% | inhibition rate, bilirubin 48 hr after ([8]; 1000 μg/kg per administration): 11.5% | inhibition, GOT ([2]; 1000 μg/kg per administration): 68.7% | inhibition, GPT ([2]; 1000 μg/kg per administration): 76.1% | inhibition, bilirubin ([2]; 1000 μg/kg per administration): 45.8%

CCCC1CCC(C(O)/C=C/[C@@H]2[C@H]3CC(CCCCCO)=N[C@H]3C[C@H]2O)C1 (single isomer, unassigned) [Compound 13, 15-(3-propylcyclopentyl)-16,17,18,19,20-pentanor-6,9α-nitrilo-PGI1 alcohol]
inhibition in vivo at 1 mg/kg [1, 10]: 53.6% | inhibition in vivo at 1 mg/kg [1, 11]: 58.2%

CCCCC[C@H](O)/C=C/[C@H]1[C@H](O)CC(=O)[C@@H]1C/C=C\CCCC(=O)O [PGE2]
effect against diet-induced acute pancreatitis [9]: effective

CCCC[C@H](C)C[C@H](O)CC[C@H]1[C@H](O)CC(=O)[C@@H]1CC(=O)CCCCC(=O)OC [Compound 4, 17S,20-dimethyl-13,14-dihydro-6-oxo-PGE1 methyl ester]
inhibition in vivo at 0.1 mg/kg [1, 10]: 52.1% | inhibition in vivo at 0.1 mg/kg [1, 11]: 62.3% | LD50 at 336 h (in vivo): > 10 mg/kg

OCCCCC[C@H]1C[C@@H]2[C@@H](/C=C/[C@@H](O)C3CCCC3)[C@H](O)C[C@@H]2O1 [Compound 12, 15-cyclopentyl-16,17,18,19,20-pentanor-6S-PGI1 alcohol]
inhibition in vivo at 2 mg/kg [1, 10]: 7.4% | inhibition in vivo at 2 mg/kg [1, 11]: 44.1%

CCCC[C@H](C)C[C@H](O)/C=C/[C@H]1[C@H](O)CC(=O)[C@@H]1CC(=O)CCCCC(=O)OC [Compound 2, 17S,20-dimethyl-6-oxo-PGE1 methyl ester]
inhibition in vivo at 0.05 mg/kg [1, 10]: 61.5% | inhibition in vivo at 0.05 mg/kg [1, 11]: 44.1% | inhibition in vivo at 0.02 mg/kg [1, 12]: 37.9% | inhibition in vivo at 0.02 mg/kg [1, 13]: 34.6% | inhibition rate, GOT 24 hr after ([8]; 100 μg/kg per administration): 29.5% | inhibition rate, GPT 24 hr after ([8]; 100 μg/kg per administration): 6.7% | inhibition rate, bilirubin 24 hr after ([8]; 100 μg/kg per administration): 24.2% | inhibition rate, GOT 48 hr after ([8]; 100 μg/kg per administration): 32.7% | inhibition rate, GPT 48 hr after ([8]; 100 μg/kg per administration): 23.5% | inhibition rate, bilirubin 48 hr after ([8]; 100 μg/kg per administration): 34.6% | inhibition, GOT ([2]; 100 μg/kg per administration): 39.6% | inhibition, GPT ([2]; 100 μg/kg per administration): 41.9% | inhibition, bilirubin ([2]; 100 μg/kg per administration): 37.5%

CCCC[C@H](C)C[C@H](O)/C=C/[C@@H]1[C@H]2C[C@H](CCCCCO)O[C@H]2C[C@H]1O [Compound 11, 17S,20-dimethyl-6S-PGI1 alcohol]
inhibition in vivo at 0.5 mg/kg [1, 12]: 73.3% | inhibition in vivo at 0.5 mg/kg [1, 13]: 65.2% | LD50 at 336 h (in vivo): > 50 mg/kg

O=C(CO)CCCC[C@H]1C[C@@H]2[C@@H](/C=C/[C@@H](O)C3CCCC3)[C@H](O)C[C@@H]2O1 [Compound 10, 2-decarboxy-2-glycoloyl-15-cyclopentyl-16,17,18,19,20-pentanor-6S-PGI]
inhibition in vivo at 1 mg/kg [1, 12]: 11.8% | inhibition in vivo at 1 mg/kg [1, 13]: 0%

CCCC[C@H](C)[C@H](O)/C=C/[C@H]1[C@H](O)CC(=O)[C@@H]1CC(=O)CCCCC(=O)OC [Compound 1, 16S-methyl-6-oxo-PGE1 methyl ester]
inhibition in vivo at 0.1 mg/kg [1, 10]: 59.9% | inhibition in vivo at 0.1 mg/kg [1, 11]: 53.5% | inhibition in vivo at 0.02 mg/kg [1, 12]: 27.8% | inhibition in vivo at 0.02 mg/kg [1, 13]: 16.3%
